# In PubChem BioAssay AID1745844 (Carcinogenic Potency Database (CPDB), 2022):
# Where “and” joins values, the source holds several entries; their conditions need not be identical. Equal values may be shown once. Calls of active or inactive are those of the source. The rule behind the calls is not given here.
# Tested on: rodent lifetime carcinogenesis bioassay, tumor incidence TD50
# Experiment: chronic cancer bioassays in animals – CPDB, compiled studies (AID 1745844)
smiles,measurement,setting,value
C=CC(=C)C,TD50,"mouse, strain B6C3F1, females, inhaled, site: Harderian gland, lesion: adenoma, dosed 80 weeks, study length 105 weeks",319 mg/kg/day
same,TD50,"mouse, strain B6C3F1, females, inhaled, site: pituitary gland, lesion: pars distalis adenoma, dosed 80 weeks, study length 105 weeks",247 mg/kg/day
same,TD50,"mouse, strain B6C3F1, females, inhaled, site: spleen, lesion: hemangiosarcoma, dosed 80 weeks, study length 105 weeks",682 mg/kg/day
same,TD50,"mouse, strain B6C3F1, males, inhaled, site: Harderian gland, lesion: adenoma + carcinoma, dosed 26 weeks, study length 53 weeks",96.8 mg/kg/day
same,TD50,"mouse, strain B6C3F1, males, inhaled, site: Harderian gland, lesion: adenoma, dosed 26 weeks, study length 53 weeks",96.8 mg/kg/day
same,TD50,"mouse, strain B6C3F1, males, inhaled, site: Harderian gland, lesion: adenoma, dosed 40 weeks, study length 105 weeks",739 mg/kg/day
same,TD50,"mouse, strain B6C3F1, males, inhaled, site: Harderian gland, lesion: adenoma, dosed 80 weeks, study length 96 weeks",711 mg/kg/day
same,TD50,"mouse, strain B6C3F1, males, inhaled, site: Harderian gland, lesion: adenoma, dosed 80 weeks, study length 105 weeks",881 mg/kg/day
same,TD50,"mouse, strain B6C3F1, males, inhaled, site: Harderian gland, lesion: carcinoma, dosed 26 weeks, study length 53 weeks",14700 mg/kg/day
same,TD50,"mouse, strain B6C3F1, males, inhaled, site: Harderian gland, lesion: carcinoma, dosed 80 weeks, study length 96 weeks",12800 mg/kg/day
same,TD50,"mouse, strain B6C3F1, males, inhaled, site: Harderian gland, lesion: carcinoma, dosed 80 weeks, study length 105 weeks",15000 mg/kg/day
same,TD50,"mouse, strain B6C3F1, males, inhaled, site: any site (literature study), lesion: several types, types named in the paper, dosed 26 weeks, study length 53 weeks",348 mg/kg/day
same,TD50,"mouse, strain B6C3F1, males, inhaled, site: forestomach + Harderian gland + liver + lung, lesion: squamous-cell carcinoma + squamous-cell papilloma + adenoma + carcinoma + hepatocellular adenoma + hepatocellular carcinoma + alveol, dosed 26 weeks, study length 53 weeks",355 mg/kg/day
same,TD50,"mouse, strain B6C3F1, males, inhaled, site: forestomach, lesion: squamous-cell carcinoma + squamous-cell papilloma, dosed 26 weeks, study length 53 weeks",1310 mg/kg/day
same,TD50,"mouse, strain B6C3F1, males, inhaled, site: forestomach, lesion: squamous-cell carcinoma, dosed 26 weeks, study length 53 weeks",4850 mg/kg/day
same,TD50,"mouse, strain B6C3F1, males, inhaled, site: forestomach, lesion: squamous-cell carcinoma, dosed 80 weeks, study length 96 weeks",25800 mg/kg/day
same,TD50,"mouse, strain B6C3F1, males, inhaled, site: forestomach, lesion: squamous-cell carcinoma, dosed 80 weeks, study length 105 weeks",22200 mg/kg/day
same,TD50,"mouse, strain B6C3F1, males, inhaled, site: forestomach, lesion: squamous-cell papilloma, dosed 26 weeks, study length 53 weeks",1860 mg/kg/day
same,TD50,"mouse, strain B6C3F1, males, inhaled, site: forestomach, lesion: squamous-cell papilloma, dosed 40 weeks, study length 105 weeks",15600 mg/kg/day
same,TD50,"mouse, strain B6C3F1, males, inhaled, site: forestomach, lesion: squamous-cell papilloma, dosed 80 weeks, study length 96 weeks",25800 mg/kg/day
same,TD50,"mouse, strain B6C3F1, males, inhaled, site: forestomach, lesion: squamous-cell papilloma, dosed 80 weeks, study length 105 weeks",45000 mg/kg/day
same,TD50,"mouse, strain B6C3F1, males, inhaled, site: heart, lesion: hemangiosarcoma, dosed 40 weeks, study length 105 weeks",32900 mg/kg/day
same,TD50,"mouse, strain B6C3F1, males, inhaled, site: heart, lesion: hemangiosarcoma, dosed 80 weeks, study length 96 weeks",25800 mg/kg/day
same,TD50,"mouse, strain B6C3F1, males, inhaled, site: heart, lesion: hemangiosarcoma, dosed 80 weeks, study length 105 weeks",39000 mg/kg/day
same,TD50,"mouse, strain B6C3F1, males, inhaled, site: liver, lesion: hepatocellular adenoma + hepatoblastoma + hepatocellular carcinoma, dosed 26 weeks, study length 53 weeks",183 mg/kg/day
same,TD50,"mouse, strain B6C3F1, males, inhaled, site: liver, lesion: hepatocellular adenoma + hepatocellular carcinoma, dosed 26 weeks, study length 53 weeks",183 mg/kg/day
same,TD50,"mouse, strain B6C3F1, males, inhaled, site: liver, lesion: hepatocellular adenoma, dosed 26 weeks, study length 53 weeks",150 mg/kg/day
same,TD50,"mouse, strain B6C3F1, males, inhaled, site: liver, lesion: hepatocellular adenoma, dosed 40 weeks, study length 105 weeks",1070 mg/kg/day
same,TD50,"mouse, strain B6C3F1, males, inhaled, site: liver, lesion: hepatocellular adenoma, dosed 80 weeks, study length 96 weeks",1760 mg/kg/day
same,TD50,"mouse, strain B6C3F1, males, inhaled, site: liver, lesion: hepatocellular adenoma, dosed 80 weeks, study length 105 weeks",1570 mg/kg/day
same,TD50,"mouse, strain B6C3F1, males, inhaled, site: liver, lesion: hepatocellular carcinoma, dosed 26 weeks, study length 53 weeks",1270 mg/kg/day
same,TD50,"mouse, strain B6C3F1, males, inhaled, site: liver, lesion: hepatocellular carcinoma, dosed 40 weeks, study length 105 weeks",2330 mg/kg/day
same,TD50,"mouse, strain B6C3F1, males, inhaled, site: liver, lesion: hepatocellular carcinoma, dosed 80 weeks, study length 96 weeks",3290 mg/kg/day
same,TD50,"mouse, strain B6C3F1, males, inhaled, site: liver, lesion: hepatocellular carcinoma, dosed 80 weeks, study length 105 weeks",4850 mg/kg/day
same,TD50,"mouse, strain B6C3F1, males, inhaled, site: lung, lesion: alveolar/bronchiolar adenoma + alveolar/bronchiolar carcinoma, dosed 26 weeks, study length 53 weeks",752 mg/kg/day
same,TD50,"mouse, strain B6C3F1, males, inhaled, site: lung, lesion: alveolar/bronchiolar adenoma, dosed 26 weeks, study length 53 weeks",836 mg/kg/day
same,TD50,"mouse, strain B6C3F1, males, inhaled, site: lung, lesion: alveolar/bronchiolar adenoma, dosed 40 weeks, study length 105 weeks",908 mg/kg/day
same,TD50,"mouse, strain B6C3F1, males, inhaled, site: lung, lesion: alveolar/bronchiolar adenoma, dosed 80 weeks, study length 96 weeks",4810 mg/kg/day
same,TD50,"mouse, strain B6C3F1, males, inhaled, site: lung, lesion: alveolar/bronchiolar adenoma, dosed 80 weeks, study length 105 weeks",1660 mg/kg/day
same,TD50,"mouse, strain B6C3F1, males, inhaled, site: lung, lesion: alveolar/bronchiolar carcinoma, dosed 26 weeks, study length 53 weeks",2790 mg/kg/day
same,TD50,"mouse, strain B6C3F1, males, inhaled, site: lung, lesion: alveolar/bronchiolar carcinoma, dosed 40 weeks, study length 105 weeks",9230 mg/kg/day
same,TD50,"mouse, strain B6C3F1, males, inhaled, site: lung, lesion: alveolar/bronchiolar carcinoma, dosed 80 weeks, study length 96 weeks",8410 mg/kg/day
same,TD50,"mouse, strain B6C3F1, males, inhaled, site: lung, lesion: alveolar/bronchiolar carcinoma, dosed 80 weeks, study length 105 weeks",6680 mg/kg/day
same,TD50,"mouse, strain B6C3F1, males, inhaled, site: lymphoreticular system, lesion: histiocytic sarcoma, dosed 40 weeks, study length 105 weeks",4430 mg/kg/day
same,TD50,"mouse, strain B6C3F1, males, inhaled, site: lymphoreticular system, lesion: histiocytic sarcoma, dosed 80 weeks, study length 96 weeks",3450 mg/kg/day
same,TD50,"mouse, strain B6C3F1, males, inhaled, site: lymphoreticular system, lesion: histiocytic sarcoma, dosed 80 weeks, study length 105 weeks",150000 mg/kg/day
same,TD50,"mouse, strain B6C3F1, males, inhaled, site: spleen, lesion: hemangiosarcoma, dosed 80 weeks, study length 96 weeks",25800 mg/kg/day
same,TD50,"rat, strain Fischer 344, females, inhaled, site: any site (literature study), lesion: several types, types named in the paper, dosed 105 weeks, study length 105 weeks",6940 mg/kg/day
same,TD50,"rat, strain Fischer 344, females, inhaled, site: brain, meninges, lesion: granular-cell tumor, benign, dosed 105 weeks, study length 105 weeks",40600 mg/kg/day
same,TD50,"rat, strain Fischer 344, females, inhaled, site: brain, meninges, lesion: sarcoma, dosed 105 weeks, study length 105 weeks",50800 mg/kg/day
same,carcinogen call,"rat, strain Fischer 344, females, inhaled, site: brain, lesion: astrocytoma, benign, dosed 105 weeks, study length 105 weeks",e
same,TD50,"rat, strain Fischer 344, females, inhaled, site: brain, lesion: malignant glioma, dosed 105 weeks, study length 105 weeks",30800 mg/kg/day
same,TD50,"rat, strain Fischer 344, females, inhaled, site: brain, lesion: medulloblastoma, malignant, dosed 105 weeks, study length 105 weeks",52800 mg/kg/day
same,TD50,"rat, strain Fischer 344, females, inhaled, site: liver, lesion: hepatocellular adenoma + hepatoblastoma + hepatocellular carcinoma, dosed 105 weeks, study length 105 weeks",25300 mg/kg/day
same,TD50,"rat, strain Fischer 344, females, inhaled, site: mammary gland, lesion: fibroadenoma + fibroadenoma, multiple, dosed 105 weeks, study length 105 weeks",3340 mg/kg/day
same,TD50,"rat, strain Fischer 344, females, inhaled, site: mammary gland, lesion: fibroadenoma, multiple, dosed 105 weeks, study length 105 weeks",206 mg/kg/day
same,TD50,"rat, strain Fischer 344, males, inhaled, site: kidney + mammary gland + testis, lesion: tubule adenoma + carcinoma + fibroadenoma + fibroadenoma, multiple + interstitial-cell adenoma, bilateral + interstitial-cell aden, dosed 104 weeks, study length 104 weeks",988 mg/kg/day
same,TD50,"rat, strain Fischer 344, males, inhaled, site: kidney, lesion: tubule adenoma + tubule carcinoma, dosed 104 weeks, study length 104 weeks",3150 mg/kg/day and 2290 mg/kg/day
same,TD50,"rat, strain Fischer 344, males, inhaled, site: kidney, lesion: tubule adenoma, dosed 104 weeks, study length 104 weeks",3150 mg/kg/day and 2290 mg/kg/day
same,TD50,"rat, strain Fischer 344, males, inhaled, site: mammary gland, lesion: carcinoma + fibroadenoma, dosed 104 weeks, study length 104 weeks",670 mg/kg/day
same,TD50,"rat, strain Fischer 344, males, inhaled, site: mammary gland, lesion: carcinoma, dosed 104 weeks, study length 104 weeks",7880 mg/kg/day
same,TD50,"rat, strain Fischer 344, males, inhaled, site: mammary gland, lesion: fibroadenoma + fibroadenoma, multiple, dosed 104 weeks, study length 104 weeks",655 mg/kg/day
same,TD50,"rat, strain Fischer 344, males, inhaled, site: mammary gland, lesion: fibroadenoma, multiple, dosed 104 weeks, study length 104 weeks",2220 mg/kg/day
same,TD50,"rat, strain Fischer 344, males, inhaled, site: mammary gland, lesion: fibroadenoma, dosed 104 weeks, study length 104 weeks",655 mg/kg/day
same,TD50,"rat, strain Fischer 344, males, inhaled, site: testis, lesion: interstitial-cell adenoma, bilateral + interstitial-cell adenoma, dosed 104 weeks, study length 104 weeks",914 mg/kg/day
same,TD50,"rat, strain Fischer 344, males, inhaled, site: testis, lesion: interstitial-cell adenoma, dosed 26 weeks, study length 52 weeks",316 mg/kg/day
CN(C)CCOC(C)(c1ccccc1)c1ccccn1 (configuration not stated),TD50,"mouse, strain B6C3F1, females, in feed, site: liver, lesion: hepatocellular adenoma, dosed 104 weeks, study length 104 weeks",633 mg/kg/day
same,TD50,"mouse, strain B6C3F1, females, in feed, site: lung, lesion: alveolar/bronchiolar adenoma, dosed 65 weeks, study length 65 weeks",78.7 mg/kg/day
same,TD50,"mouse, strain B6C3F1, females, in feed, site: lung, lesion: several types, types named in the paper, dosed 104 weeks, study length 104 weeks",170 mg/kg/day
same,TD50,"mouse, strain B6C3F1, females, in feed, site: thyroid gland, lesion: follicular-cell adenoma, dosed 104 weeks, study length 104 weeks",740 mg/kg/day
same,TD50,"mouse, strain B6C3F1, females, in feed, site: thyroid gland, lesion: follicular-cell tumor, dosed 104 weeks, study length 104 weeks",672 mg/kg/day
same,TD50,"mouse, strain B6C3F1, males, in feed, site: liver, lesion: hepatocellular adenoma, dosed 65 weeks, study length 65 weeks",77.8 mg/kg/day
same,TD50,"mouse, strain B6C3F1, males, in feed, site: liver, lesion: hepatocellular adenoma, dosed 104 weeks, study length 104 weeks",144 mg/kg/day
same,TD50,"mouse, strain B6C3F1, males, in feed, site: liver, lesion: several types, types named in the paper, dosed 104 weeks, study length 104 weeks",125 mg/kg/day
same,TD50,"mouse, strain B6C3F1, males, in feed, site: lung, lesion: alveolar/bronchiolar adenoma, dosed 65 weeks, study length 65 weeks",3180 mg/kg/day
same,TD50,"mouse, strain B6C3F1, males, in feed, site: thyroid gland, lesion: follicular-cell adenoma, dosed 104 weeks, study length 104 weeks",273 mg/kg/day
same,carcinogen call,"rat, strain Fischer 344, females, in feed, site: liver, lesion: several types, types named in the paper, dosed 104 weeks, study length 104 weeks",negative (inactive)
same,TD50,"rat, strain Fischer 344, males, in feed, site: all sites, lesion: mononuclear-cell leukemia, dosed 104 weeks, study length 104 weeks",271 mg/kg/day
same,TD50,"rat, strain Fischer 344, males, in feed, site: liver, lesion: hepatocellular adenoma, dosed 65 weeks, study length 65 weeks",469 mg/kg/day
same,TD50,"rat, strain Fischer 344, males, in feed, site: liver, lesion: hepatocellular adenoma, dosed 104 weeks, study length 104 weeks",3270 mg/kg/day
same,TD50,"rat, strain Fischer 344, males, in feed, site: liver, lesion: hepatocellular carcinoma, dosed 104 weeks, study length 104 weeks",3270 mg/kg/day
same,TD50,"rat, strain Fischer 344, males, in feed, site: liver, lesion: several types, types named in the paper, dosed 104 weeks, study length 104 weeks",1610 mg/kg/day
